Counter-ions that a name gives are not always drawn.
Experiments:
[1] = Stability test under oxidation condition (0.3% hydrogen peroxide solution, HPLC total related substances); assay type: physicochemical; conditions: room temperature, 24 hours, HPLC area ratio of total related substances
From the text: (§1) This experiment is designed to confirm the storage stability of the various acid salts of tolterodine.
(§2) For a pharmaceutical drug to be processed into a certain formulation it is essential to be provided with sufficient storage stability. For example, for tablets or capsules, it is necessary for them to have stability in atmospheric condition, for injections, stability in moisture (water), and for patches, both stability in atmospheric condition and in moisture (water).

[2] = Stability test under acid condition (HPLC total impurities); assay type: physicochemical; conditions: acid condition (details not described)
From the text: as §1, §2

[3] = Alkali stability test (1M sodium hydroxide solution, HPLC total related substances); assay type: physicochemical; conditions: room temperature, 24 hours, HPLC area ratio of total related substances
From the text: as §1, §2

[4] = In vitro penetration test, Frantz cell mounted with hairless mouse skin; conditions: 10 mg/mL in propylene glycol, 32° C.
Protocol: I mL of tolterodine salt was added onto a Frantz cell, which was mounted with a hairless mouse skin. Then, the amount of tolterodine penetrated through the skin at 32° C. was quantitated and its cumulative amount was measured.

Row | Compound | Total impurities, oxidation condition [1] [% area] | Total impurities, acid condition [2] [% area] | Total impurities, alkali condition [3] [% area] | Cumulative amount of tolterodine penetrated through the skin ([4]; 0 hr) [µg] | Cumulative amount of tolterodine penetrated through the skin ([4]; 3 hr) [µg] | Cumulative amount of tolterodine penetrated through the skin ([4]; 6 hr) [µg] | Cumulative amount of tolterodine penetrated through the skin ([4]; 9 hr) [µg] | Cumulative amount of tolterodine penetrated through the skin ([4]; 12 hr) [µg]
1 | Cc1ccc(O)c([C@H](CCN(C(C)C)C(C)C)c2ccccc2)c1.O=C(O)c1cc(O)ccc1O [tolterodine gentisate, Tolterodine Gentisate] | 0.23 | 0.03 | 0.04 |  |  |  |  | 
2 | Cc1ccc(O)c([C@H](CCN(C(C)C)C(C)C)c2ccccc2)c1.Cc1ccc(O)c([C@H](CCN(C(C)C)C(C)C)c2ccccc2)c1.O=C(O)CCCCC(=O)O [tolterodine hemiadipate, Tolterodine Hemiadipate] | 0.39 | 0.14 | 0.10 |  |  |  |  | 
3 | Tolterodine Glucolate | 0.44 | 0.11 | 0.23 |  |  |  |  | 
4 | Cc1ccc(O)c([C@H](CCN(C(C)C)C(C)C)c2ccccc2)c1.Cc1ccc(O)c([C@H](CCN(C(C)C)C(C)C)c2ccccc2)c1.O=S(=O)(O)c1cccc2c(S(=O)(=O)O)cccc12 [tolterodine hemi naphthalene-1,5-disulfonate] | 0.40 | 0.07 | 0.11 |  |  |  |  | 
5 | Cc1ccc(O)c([C@H](CCN(C(C)C)C(C)C)c2ccccc2)c1.O=C1CC[C@@H](C(=O)O)N1 [tolterodine L-pyroglutamate, Tolterodine L-Pyroglutamate] | 0.56 | 0.03 | 0.08 |  |  |  |  | 
6 | Cc1ccc(O)c(C(CCN(C(C)C)C(C)C)c2ccccc2)c1.O=C(O)c1ccc2ccccc2c1O (stereo not drawn) [tolterodine 1-hydroxy-2-naphtate, tolterodine 1-hydroxy-2-naphthate] | 0.33 | 0.10 | 0.15 |  |  |  |  | 
7 | Cc1ccc(O)c([C@H](CCN(C(C)C)C(C)C)c2ccccc2)c1 [tolterodine tartrate, reference compound] | 0.98 | 0.20 | 0.29 |  |  |  |  | 
8 | CC1=C(/C=C/C(C)=C/C=C/C(C)=C/C(=O)O)C(C)(C)CCC1.Cc1ccc(O)c([C@H](CCN(C(C)C)C(C)C)c2ccccc2)c1 [tolterodine retinoate, Tolterodine Retinoate] | 0.08 | 0.15 | 0.19 | 0.0 | 0.5 | 1.7 | 2.5 | 4.1
9 | Tolterodine Toluene Sulfonate [tolterodine p-toluenesulfonate] | 0.09 | 0.11 | 0.06 | 0.0 | 1.1 | 8.0 | 19.9 | 36.6
10 | Tolterodine Benzene Sulfonate [tolterodine benzenesulfonate] | 0.51 | 0.02 | 0.08 | 0.0 | 0.0 | 0.4 | 0.8 | 1.7
11 | Cc1ccc(O)c([C@H](CCN(C(C)C)C(C)C)c2ccccc2)c1.O=C(O)c1ccccc1 [tolterodine benzoate, Tolterodine Benzoate] | 0.39 | 0.02 | 0.10 |  |  |  |  | 
12 | Cc1ccc(O)c([C@H](CCN(C(C)C)C(C)C)c2ccccc2)c1 [tolterodine free base, 2-[(1R)-3-(diisopropylamino)-1-phenylpropyl)-4-methylphenol, reference compound] | 4.74 | 0.59 | 0.83 |  |  |  |  | 
13 | Cc1ccc(O)c([C@H](CCN(C(C)C)C(C)C)c2ccccc2)c1.O=C(O)CNC(=O)c1ccccc1 [tolterodine hippurate, Tolterodine Hippurate] | 0.41 | 0.11 | 0.14 |  |  |  |  | 

Reference: patent US8367726B2, “Acid salt of tolterodine having effective stability for transdermal drug delivery system” (SK Chemicals Co., Ltd., priority 2008, dated 2013)
